Assay results taken from patent US20260132129A1 (Genesis Therapeutics, Inc., priority 2022, published 2026).

Biological target: T1, PI3Kα H1047R (T47D cells) (Homo sapiens, UniProt P42336, H1047R)
T1 construct: endogenous in cells; host or cells: T47D cells
Experiment: PI3Kα cellular assay: pAKT HTRF in T47D cells after EGF stimulation
Type: cell-based
Conditions: for IC50: T47D cells (PI3Kα H1047R), pAKT S473 HTRF
Summary of the method: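 T47D cells (PIK3CA H1047R) serum-starved 16 h, then treated 1 h at 37 °C with compound (10,000 nM top, 3-fold steps to 0.5 nM). After 10 min stimulation with 20 ng/mL EGF, cells were lysed and pAKT measured by HTRF.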

[1] = 1 hr compound, 20 ng/ml EGF 10 min
[2] = selectivity T47D (H1047R) over SKBR3 (WT), pAKT HTRF
[3] = selectivity of T47D (H1047R) over SKBR3 (WT) pAKT IC50

T1 sequence (P42336 whole entry H1047R): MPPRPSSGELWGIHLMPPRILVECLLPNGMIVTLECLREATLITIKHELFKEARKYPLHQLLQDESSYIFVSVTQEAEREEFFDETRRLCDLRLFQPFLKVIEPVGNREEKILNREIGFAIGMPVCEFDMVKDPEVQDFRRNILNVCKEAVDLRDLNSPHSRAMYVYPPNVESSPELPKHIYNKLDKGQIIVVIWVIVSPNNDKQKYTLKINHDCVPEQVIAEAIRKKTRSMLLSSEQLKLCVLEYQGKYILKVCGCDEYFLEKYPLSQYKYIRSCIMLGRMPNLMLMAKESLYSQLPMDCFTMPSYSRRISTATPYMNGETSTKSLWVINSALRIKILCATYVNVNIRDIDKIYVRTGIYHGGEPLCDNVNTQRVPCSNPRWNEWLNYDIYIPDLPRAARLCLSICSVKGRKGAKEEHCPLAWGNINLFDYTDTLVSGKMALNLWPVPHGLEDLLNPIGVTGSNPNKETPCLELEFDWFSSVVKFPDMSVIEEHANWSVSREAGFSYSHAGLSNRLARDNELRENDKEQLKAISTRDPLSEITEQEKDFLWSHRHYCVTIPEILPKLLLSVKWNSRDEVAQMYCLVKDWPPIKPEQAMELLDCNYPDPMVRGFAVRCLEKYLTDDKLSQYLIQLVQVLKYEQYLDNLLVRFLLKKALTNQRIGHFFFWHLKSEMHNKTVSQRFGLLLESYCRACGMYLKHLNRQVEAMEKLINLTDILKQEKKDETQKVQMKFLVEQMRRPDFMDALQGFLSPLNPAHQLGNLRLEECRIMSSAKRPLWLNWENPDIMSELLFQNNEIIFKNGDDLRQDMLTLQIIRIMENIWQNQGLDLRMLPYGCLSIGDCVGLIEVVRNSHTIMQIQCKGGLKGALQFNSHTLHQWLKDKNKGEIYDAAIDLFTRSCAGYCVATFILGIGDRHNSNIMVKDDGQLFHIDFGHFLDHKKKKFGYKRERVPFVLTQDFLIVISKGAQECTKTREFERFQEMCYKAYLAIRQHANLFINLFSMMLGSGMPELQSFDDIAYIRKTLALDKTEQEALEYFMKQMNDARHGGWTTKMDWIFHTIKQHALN
T1 sequence (P27986 whole entry partner): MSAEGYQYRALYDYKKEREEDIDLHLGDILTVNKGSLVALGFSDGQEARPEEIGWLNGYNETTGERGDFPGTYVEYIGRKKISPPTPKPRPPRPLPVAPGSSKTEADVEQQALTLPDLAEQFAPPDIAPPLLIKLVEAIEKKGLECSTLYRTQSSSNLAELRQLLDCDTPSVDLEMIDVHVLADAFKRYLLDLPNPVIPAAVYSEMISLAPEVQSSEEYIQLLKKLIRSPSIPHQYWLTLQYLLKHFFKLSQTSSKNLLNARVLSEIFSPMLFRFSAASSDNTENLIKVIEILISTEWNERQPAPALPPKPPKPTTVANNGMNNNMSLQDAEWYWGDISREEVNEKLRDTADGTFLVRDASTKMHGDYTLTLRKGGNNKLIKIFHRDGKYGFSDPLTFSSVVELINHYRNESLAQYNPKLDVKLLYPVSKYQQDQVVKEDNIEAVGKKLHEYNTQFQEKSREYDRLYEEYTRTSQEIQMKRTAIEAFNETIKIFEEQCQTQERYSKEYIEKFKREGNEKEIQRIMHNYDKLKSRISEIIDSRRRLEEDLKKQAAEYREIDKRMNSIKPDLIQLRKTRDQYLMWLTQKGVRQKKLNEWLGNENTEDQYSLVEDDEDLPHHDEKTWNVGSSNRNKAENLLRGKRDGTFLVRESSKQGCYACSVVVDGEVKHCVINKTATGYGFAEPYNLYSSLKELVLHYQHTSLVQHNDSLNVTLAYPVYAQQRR

| Compound | IC50 [1] [nM] | T47D pAKT S473 HTRF IC50 (H1047R): T47D (H1047R) selectivity over SKBR3 (WT) [2] | IC50 (EGF stimulation) [nM] | T47D pAKT S473 HTRF IC50 (H1047R): T47D (H1047R) selectivity over SKBR3 (WT) [3] |
| --- | --- | --- | --- | --- |
| CC[C@H](Nc1ccccc1C(=O)O)c1cc(C)cn2c(=O)cc(N3CCOCC3)nc12 [Compound 294] | 500 to 2000 | C (C denotes ≤5-fold) |  |  |
| Cc1cc([C@@H](C)Nc2ccccc2C(=O)O)c2nc(-c3ccc(C4CCCC(C)C4)cc3)c(C)c(=O)n2c1 (stereo partly drawn) [Compound 1338] |  | C (C denotes ≤5-fold) |  |  |
| Cc1cc([C@@H](C)Nc2ccccc2C(=O)O)c2nc([C@H]3CCCOC3)c(C)c(=O)n2c1 [Compound 1279] |  | A (A denotes >20-fold) | < 100 |  |
| Cc1cc([C@H](C)Nc2ccccc2-c2ccnnc2)c2nc(-c3ccc4c(C)nn(C5CC5)c4c3)c(C)c(=O)n2c1 [Compound 1129] |  | B (B denotes 20-fold≥value>5-fold) | 500 to 2000 |  |
| Cc1cc([C@@H](C)Nc2ccccc2C(=O)O)c2nc(N3C[C@H](C)C[C@H](C)C3)cc(=O)n2c1 (single isomer, unassigned) [Compound 512] | < 100 | A (A denotes >20-fold) |  |  |
| CC[C@@H](Nc1ccccc1C(=O)O)c1cc(C)cn2c(=O)cc(N3CCOCC3)nc12 [Compound 293] | > 2000 | C (C denotes ≤5-fold) |  |  |
| Cc1cc([C@@H](C)Nc2ccccc2C(=O)O)c2nc(-c3ccc4[nH]c(=O)oc4c3)cc(=O)n2c1 [Compound 541] | 100 to 500 | A (A denotes >20-fold) |  |  |
| Cc1cc(C(C)Nc2ccccc2C(=O)O)c2nc(-c3ccc4c(n3)c(C)nn4C)cc(=O)n2c1 (stereo not drawn) [Compound 858] |  |  | 100 to 500 | A (A denotes >20-fold) |
| CCc1cc(C(=O)NOC)ccc1-c1cc(=O)n2cc(C)cc([C@@H](C)Nc3ccccc3C(=O)O)c2n1 [Compound 503] | > 2000 | C (C denotes ≤5-fold) |  |  |
| CC(=O)N1CCC(Cc2ccc(-c3nc4c([C@H](C)Nc5ccccc5C(=O)O)cc(C)cn4c(=O)c3C)cc2F)CC1 [Compound 1334] |  | B (B denotes 20-fold≥value>5-fold) |  |  |
| Cc1cc(C(C)Nc2cc(C(F)(F)F)ccc2C(=O)O)c2nc(N3CCOCC3)c(C)c(=O)n2c1 (stereo not drawn) [Compound 328] | > 2000 | C (C denotes ≤5-fold) |  |  |
| Cc1cc([C@H](C)Nc2cccnc2-c2ccnnc2)c2nc(N3Cc4ccccc4C3)cc(=O)n2c1 [Compound 943] |  |  | 100 to 500 | A (A denotes >20-fold) |
| Cc1cc([C@@H](C)Nc2ccccc2C(=O)O)c2nc(-c3ccc4c(c3)CC(F)(F)C4)cc(=O)n2c1 [Compound 822] |  |  | < 100 | A (A denotes >20-fold) |
| Cc1c(N2C[C@@H](C)O[C@@H](C)C2)nc2c([C@@H](C)Nc3ccccc3C(=O)O)cc(C(F)(F)F)cn2c1=O [Compound 907] |  |  |  | C (C denotes ≤5-fold) |
| Cc1cc(C(C)Nc2ccccc2C(=O)O)c2nc(-c3ccc4c(c3)CCN4CC(N)=O)cc(=O)n2c1 (stereo not drawn) [Compound 726] |  |  |  | B (B denotes 20-fold≥value>5-fold) |
| Cc1cc([C@@H](C)Nc2ccccc2S(N)(=O)=O)c2nc(N3Cc4cccnc4C3)c(C)c(=O)n2c1 [Compound 1323] |  | A (A denotes >20-fold) | < 100 |  |
| Cc1cc([C@@H](C)Nc2ccccc2C(=O)O)c2nc(-c3ccnc(C4CC4)c3)c(C)c(=O)n2c1 (single isomer, unassigned) [Compound 953] |  |  | < 100 | A (A denotes >20-fold) |
| COCCNc1cc(=O)n2cc(C)cc(C(C)Nc3ccccc3C(=O)O)c2n1 (stereo not drawn) [Compound 313] | > 2000 | C (C denotes ≤5-fold) |  |  |

| Compound | IC50 [1] [nM] | T47D pAKT S473 HTRF IC50 (H1047R): T47D (H1047R) selectivity over SKBR3 (WT) [2] | IC50 (EGF stimulation) [nM] | T47D pAKT S473 HTRF IC50 (H1047R): T47D (H1047R) selectivity over SKBR3 (WT) [3] |
| --- | --- | --- | --- | --- |
| Cc1cc(C(C)Nc2ccccc2C(=O)O)c2nc(N3CCN(CCC(N)=O)CC3)cc(=O)n2c1 (stereo not drawn) [Compound 551] | > 2000 | C (C denotes ≤5-fold) |  |  |
| Cc1cc(C(C)Nc2ccccc2-c2ccnnc2)c2nc(N3CCOCC3)cc(=O)n2c1 (stereo not drawn) [Compound 494] | > 2000 | C (C denotes ≤5-fold) |  |  |
| Cc1cc([C@@H](C)Nc2ccccc2-c2ccnnc2)c2nc(N3CCOCC3)cc(=O)n2c1 [Compound 495] | > 2000 | C (C denotes ≤5-fold) |  |  |
| Cc1cc(C(C)Nc2ccccc2)c2nc(-c3ccc(F)cc3)c(C)c(=O)n2c1 (stereo not drawn) [Compound 1086] |  | C (C denotes ≤5-fold) | > 2000 |  |
| Cc1cc(C(C)Nc2ccccc2S(N)(=O)=O)c2nc(-c3cnc4c(c3)c(C)nn4C3CC3)c(C)c(=O)n2c1 (stereo not drawn) [Compound 990] |  |  | 100 to 500 | A (A denotes >20-fold) |
| Cc1cc([C@@H](C)Nc2ccccc2-c2ccnnc2)c2nc(N3Cc4ccccc4C3)c(C3CC3)c(=O)n2c1 [Compound 874] |  |  | > 2000 |  |
| CNc1nn(C)c2ccc(-c3cc(=O)n4cc(C)cc([C@H](C)Nc5ccccc5C(=O)O)c4n3)cc12 [Compound 768] |  |  | 100 to 500 | A (A denotes >20-fold) |
| Cc1cc(C(C)Nc2ccccc2C(=O)O)c2nc(-c3ccc4c(C)nn(C)c4c3)cc(=O)n2c1 (stereo not drawn) [Compound 818] |  |  | < 100 | A (A denotes >20-fold) |
| CC(=O)c1ccc(-c2cc(=O)n3cc(C)cc([C@@H](C)Nc4ccccc4C(=O)O)c3n2)cc1 [Compound 660] |  |  | < 100 | A (A denotes >20-fold) |
| CNc1nn(C)c2ccc(-c3cc(=O)n4cc(C)cc([C@@H](C)Nc5ccccc5C(=O)O)c4n3)cc12 [Compound 767] |  |  | < 100 | A (A denotes >20-fold) |
| Cc1cc([C@@H](C)Nc2ccccc2C(N)=O)c2nc(-c3ccc(C4CC4)nc3)c(C)c(=O)n2c1 [Compound 1153] |  | A (A denotes >20-fold) | 100 to 500 |  |
| Cc1cc([C@H](C)Nc2ccccc2S(C)(=O)=O)c2nc(-c3ccc4c(C)cn(C)c4c3)c(C)c(=O)n2c1 [Compound 1062] |  | C (C denotes ≤5-fold) |  |  |
| Cc1cc(C(C)Nc2ccccc2C)c2nc(N3CCOCC3)cc(=O)n2c1 (stereo not drawn) [Compound 154] | > 2000 | C (C denotes ≤5-fold) |  |  |
| Cc1cc(C(C)Nc2cccc3oc(=O)[nH]c23)c2nc(N3CCOCC3)cc(=O)n2c1 (stereo not drawn) [Compound 918] |  |  | > 2000 | C (C denotes ≤5-fold) |
| Cc1cc(C(C)Nc2ccccc2C(=O)O)c2nc(-c3cnc(N)nc3)cc(=O)n2c1 (stereo not drawn) [Compound 145] | 500 to 2000 | B (B denotes 20-fold≥value>5-fold) |  |  |
| Cc1cc(C(C)Nc2ccccc2C(=O)O)c2nc(-c3ccc(F)cc3)c(C)c(=O)n2c1 (stereo not drawn) [Compound 721] |  |  | 100 to 500 |  |
| Cc1cc([C@H](C)Nc2ccccc2C(=O)O)c2nc(-c3ccc4c(c(N)nn4C)c3C)c(C)c(=O)n2c1 [Compound 788] |  |  | 100 to 500 | A (A denotes >20-fold) |
